Reference: patent publication US7381554B2, “UDP-N-acetylglucosamine: galactose-β1,3-N-acetylgalactosamine-α-R/N-acetylglucosamine-β1,3-N-acetylgalactosamine-α-R (GlcNAc to GalNAc) β1,6-N-acetylglucosaminyltransferase, C2/4GnT” (Glycozym ApS, priority 1998, dated 2008)

Legend:
[1] = target: T1, C2/4GnT (Homo sapiens, UniProt O95395); test: C2/4GnT GlcNAc-transferase activity assay with acceptor/donor substrates; type: biochemical; details: for Substrate specificity: C2/4GnT activity, 2 mM: acceptor substrate 2 mM; for Substrate specificity: C2/4GnT activity, 2 mM / Substrate specificity: C2/4GnT activity, 10 mM: partially purified media of infected High Five cells, background subtracted; for Substrate specificity: C2/4GnT activity, 10 mM: acceptor substrate 10 mM; for C2/4GnT activity with donor substrate (in words): as donor substrate, data not shown; for C2/4GnT activity with acceptor substrate (in words): as acceptor substrate; for Substrate inhibition of C2/4GnT enzyme activity: high acceptor concentrations up to 20 mM
T1 construct: An expression construct designed to encode amino acid residues 31-438 of C2/4GnT was prepared by PCR using P1 DNA; gp67 secretion signal of vector pAcGP67A (own knowledge of the vector); made in house; host or cells: Sf9 cells (culture supernatant, standard assays); High Five cells (partially purified enzyme, kinetics)
T1 sequence (O95395 31-438): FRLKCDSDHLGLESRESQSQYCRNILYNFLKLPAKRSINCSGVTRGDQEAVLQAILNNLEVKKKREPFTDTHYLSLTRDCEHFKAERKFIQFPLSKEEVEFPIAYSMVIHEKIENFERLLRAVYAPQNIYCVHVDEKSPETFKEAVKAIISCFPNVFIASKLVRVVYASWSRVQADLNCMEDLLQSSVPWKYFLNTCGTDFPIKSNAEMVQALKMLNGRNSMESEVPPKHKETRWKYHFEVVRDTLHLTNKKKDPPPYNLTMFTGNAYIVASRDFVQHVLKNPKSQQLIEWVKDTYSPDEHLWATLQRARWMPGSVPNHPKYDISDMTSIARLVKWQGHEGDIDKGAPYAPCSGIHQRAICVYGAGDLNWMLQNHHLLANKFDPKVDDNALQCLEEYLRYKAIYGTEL
Method: (§1) An expression construct designed to encode amino acid residues 31-438 of C2/4GnT was prepared by PCR using P1 DNA, and the primer pair TSHC55 (5′-[…]-3′) (SEQ ID NO:8) and TSHC45 (SEQ ID NO:5) (FIG. 2). The PCR product was cloned into the EcoRI site of pAcGP67A (PharMingen), and the insert was fully sequenced. pAcGP67-C2/4GnT-sol was co-transfected with Baculo-Gold™ DNA (PharMingen) as described previously (14). Recombinant Baculo-virus were obtained after two successive amplifications in Sf9 cells grown in serum-containing medium, and titers of virus were estimated by titration in 24-well plates with monitoring of enzyme activities.
(§2) Controls included the pAcGP67-GalNAc-T3-sol (15). The kinetic properties were determined with partially purified enzymes expressed in High Five™ cells. Partial purification was performed by consecutive chromatography on Amberlite IRA-95, DEAE-Sephacryl and CM-Sepharose essentially as described (16).
as §1, with “sequenced. Plasmids” for “sequenced.”, “pAcGP67-C2/4GnT-sol and pAcGP67-C2GnT-sol were” for “pAcGP67-C2/4GnT-sol was”, “activities. Controls included the pAcGP67-GalNAc-T3-sol (15).” for “activities.”
(§3) Standard assays were performed using culture supernatant from infected cells in 50 μl reaction mixtures containing 100 mM MES […], 10 mM EDTA, 10 mM 2-Acetamido-2-deoxy-D-glucono-1,5-lacton, 180 μM UDP-[^14C]-GlcNAc (6,000 cpm/nmol) (Amersham Pharmacia Biotech), and the indicated concentrations of acceptor substrates (Sigma and Toronto Research Laboratories Ltd., see Table I for structures). Semi-purified C2/4GnT was assayed in 50 μl reaction mixtures containing 100 mM MES (pH 7), 5 mM EDTA, 90 μM UDP-[^14C]-GlcNAc (3,050 cpm/nmol) (Amersham Pharmacia Biotech), and the indicated concentrations of acceptor substrates. Reaction products were quantified by chromatography on Dowex AGI-X8.

[2] = target: T2, C2GnT (Homo sapiens, UniProt Q02742); test: C2GnT GlcNAc-transferase activity assay with acceptor substrates; type: biochemical; details: partially purified media of infected High Five cells, background subtracted; for Substrate specificity: C2GnT activity, 2 mM: acceptor substrate 2 mM; for Substrate specificity: C2GnT activity, 10 mM: acceptor substrate 10 mM
T2 construct: Plasmids pAcGP67-C2/4GnT-sol and pAcGP67-C2GnT-sol were co-transfected with; gp67 secretion signal of vector pAcGP67 (own knowledge of the vector); made in house; host or cells: Sf9 cells (baculovirus, culture supernatant)
T2 sequence (Q02742 33-428 limits assumed): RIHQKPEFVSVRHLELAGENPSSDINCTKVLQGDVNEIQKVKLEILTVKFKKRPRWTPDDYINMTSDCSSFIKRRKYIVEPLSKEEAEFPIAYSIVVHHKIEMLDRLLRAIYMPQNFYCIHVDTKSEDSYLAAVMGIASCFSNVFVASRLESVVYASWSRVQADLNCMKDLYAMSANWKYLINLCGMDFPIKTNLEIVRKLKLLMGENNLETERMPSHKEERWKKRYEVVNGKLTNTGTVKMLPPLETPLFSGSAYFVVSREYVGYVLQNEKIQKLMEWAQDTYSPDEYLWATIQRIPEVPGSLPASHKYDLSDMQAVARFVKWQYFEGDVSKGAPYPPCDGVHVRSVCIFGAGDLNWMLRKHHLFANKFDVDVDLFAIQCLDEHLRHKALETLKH
Method: as §2
as §1, with “sequenced. Plasmids” for “sequenced.”, “pAcGP67-C2/4GnT-sol and pAcGP67-C2GnT-sol were” for “pAcGP67-C2/4GnT-sol was”, “activities. Controls included the pAcGP67-GalNAc-T3-sol (15).” for “activities.”
as §3

SMILES	Substrate specificity: C2/4GnT activity, 2 mM [1]	Substrate specificity: C2/4GnT activity, 10 mM [1]	Substrate specificity: C2GnT activity, 2 mM [2]	Substrate specificity: C2GnT activity, 10 mM [2]	C2/4GnT activity with donor substrate (in words) [1]	C2/4GnT activity with acceptor substrate (in words) [1]	Substrate inhibition of C2/4GnT enzyme activity [1]
CC(=O)N[C@@H]1[C@@H](O[C@@H]2O[C@H](CO)[C@H](O)[C@H](O)[C@H]2O)[C@@H](O)[C@@H](CO)O[C@@H]1O [β-D-Gal-(1-3)-α-D-GalNAc]	2.8 nmol/h/mg	7.3 nmol/h/mg	9.6 nmol/h/mg	19.0 nmol/h/mg	–	–	–
CC(=O)N[C@H]1C(O)O[C@H](CO)[C@H](O)[C@@H]1O (stereo partly drawn) [D-GalNAc]	<0.1 nmol/h/mg	<0.1 nmol/h/mg	<0.1 nmol/h/mg	<0.1 nmol/h/mg	–	–	–
CC(=O)N[C@H]1[C@@H](OP(=O)(O)OP(=O)(O)OC[C@H]2O[C@@H](n3ccc(=O)[nH]c3=O)[C@H](O)[C@@H]2O)O[C@H](CO)[C@@H](O)[C@@H]1O [UDP-GlcNAc, UDP-N-acetylglucosamine]	–	–	–	–	strict donor substrate specificity	–	–
CC(=O)N[C@H]1[C@@H](Oc2ccc([N+](=O)[O-])cc2)O[C@H](CO)[C@H](O)[C@@H]1O [α-D-GalNAc-1-p-Nph]	<0.1 nmol/h/mg	<0.1 nmol/h/mg	<0.1 nmol/h/mg	<0.1 nmol/h/mg	–	no activity	–
CC(=O)N[C@H]1[C@@H](OP(=O)(O)OP(=O)(O)OC[C@H]2O[C@@H](n3ccc(=O)[nH]c3=O)[C@H](O)[C@@H]2O)O[C@H](CO)[C@H](O)[C@@H]1O [UDP-GalNAc]	–	–	–	–	no activity	–	–
CC(=O)N[C@H]1[C@@H](Oc2ccc([N+](=O)[O-])cc2)O[C@H](CO)[C@H](O)[C@@H]1O[C@@H]1O[C@H](CO)[C@H](O)[C@H](O)[C@H]1O [β-D-Gal-(1-3)-α-D-GalNAc-1-p-Nph]	16.1 nmol/h/mg	21.8 nmol/h/mg	16.2 nmol/h/mg	23.6 nmol/h/mg	–	–	No substrate inhibition
CC(=O)N[C@H]1[C@H](O[C@H]2[C@@H](O)[C@@H](CO)O[C@@H](O[C@H]3[C@H](O)[C@@H](O)C(O)O[C@@H]3CO)[C@@H]2O)O[C@H](CO)[C@@H](O[C@@H]2O[C@H](CO)[C@H](O)[C@H](O)[C@H]2O)[C@@H]1O (mixture of isomers) [lacto-N-neo-tetraose]	<0.1 nmol/h/mg	<0.1 nmol/h/mg	<0.1 nmol/h/mg	<0.1 nmol/h/mg	–	no activity	–
CC(=O)NC1C(OC2C(O)C(CO)OC(Oc3ccc([N+](=O)[O-])cc3)C2NC(C)=O)OC(CO)C(O)C1O [β-D-GlcNAc-(1-3)-α-D-GalNAc-1-p-Nph]	5.2 nmol/h/mg	7.4 nmol/h/mg	<0.1 nmol/h/mg	<0.1 nmol/h/mg	–	–	No substrate inhibition
CO[C@@H]1O[C@H](CO)[C@H](O)[C@H](O[C@@H]2O[C@H](CO)[C@@H](O)[C@H](O)[C@H]2NC(C)=O)[C@H]1O [β-D-GlcNAc-(1-3)-β-D-Gal-1-Me]	<0.1 nmol/h/mg	<0.1 nmol/h/mg	<0.1 nmol/h/mg	<0.1 nmol/h/mg	–	no activity	–
